In data set [1] the test system is C3 deposit on breast cancer cells. Kind of data set: C3 deposition on cancer cell surface by flow cytometry with anti-C3 antibody. The data set is classed as cell-based. The settings on record: human serum, non-lytic conditions. The protocol: An in vitro evaluation was performed to assess the decay-accelerating ability of ST3Gal1 silenced breast cancer cells with de-sialylated CD55, by measuring the deposition of C3 fragments on the cancer cell surface.
Breast cancer cells were incubated under non-lytic conditions with human serum and deposited C3 were detected by flow cytometric analysis using anti-C3 antibody. […] There is minimal C3 deposit in both scramble RNA (sc) and ST3Gal1 siRNA (si) transfected breast cancer cells in the absence of anti-HLA antibody (geometric mean fluorescence: sc, 31.5±0.2×10^3; si, 35.2±0.6×10^3).
(In flow cytometry, cells or beads pass a laser one at a time.)

Data set [2] deals with CD46 and CD59. The data set can be described thus: Western blot of CDC regulatory proteins. As to conditions: breast cancer cells; FIG. 2B. The data set is classed as cell-based. The text has this:
In addition, the expression levels of CD46 or CD59 were unaffected in breast cancer cells transfected with ST3Gal1 siRNA.
A general note: In western blotting, separated proteins are transferred to a membrane and probed.

Data set [3] concerns CD55. The data set can be described thus: PNA lectin blot / PNA precipitation of cell lysates with mass spectrometry and CD55 blot. The data set is classed as cell-based. As to conditions: breast cancer cells. The protocol: To examine the protein target of ST3Gal1 in breast cancer cells, total cell lysates from scramble or ST3Gal1 siRNA treated breast cancer cells were prepared for PNA lectin blot analysis after precipitation with agarose bound PNA. ST3Gal1 catalyzes the sialylation of galactosyl (β-1, 3) N-acetylgalactosamine, by adding sialic acid to Core 1 O-glycans. Since Peanut agglutinin (PNA) binds preferentially to Core 1 O-glycans (without the added sialic acid), ST3Gal1 knock down is expected to increase PNA binding to Core 1 O-glycans.
As expected, PNA-binding signals in breast cancer cells increased at about 72, 130 and 250 kDa molecular weight, after ST3Gal1 knock down (FIG. 1B). Using in-gel digestion and LTQ-FTD MASS spectrometry, CD55 was identified as one of the PNA-binding proteins with increased signal (by 2.6 folds) after ST3Gal1 knock down and the molecular weight of CD55 is slightly lower in ST3Gal1 silenced cells (FIG. 1C). However, the total CD55 protein levels remained similar (sc vs. si: 1.0 vs. 1.1) (FIG. 1D).

Data set [4] concerns MDA-MB-231 cells. The data set can be described thus: ADCC assay with human PBMC effectors and anti-SSEA4 antibody. The class given is cell-based. The settings on record: anti-SSEA4 antibody, Effector:Target ratio 10:1. The protocol: (§1) MDA-MB-231 breast cancer cells were transfected with scramble RNA (sc) or ST3Gal1 siRNA (si) according to Example 1. After four days, cells were collected and analyzed for the expression of membrane complement regulatory proteins (mCRPs) and target antigen by fluorescence-activated cell sorting (FACS). There was no change in the expression levels of mCRPs (CD46, CD55, and CD59) and target antigens (HLA and SSEA4) with ST3Gal1 silencing.
ADCC assay was performed using human PBMC cells as effectors, anti-SSEA4 as antibody, and ST3Gal1siRNA transfected MDA-MB-231 cells as targets. […] The mean percentages of lysis are 24.2±1.7% and 41.5±2.4% for sc and si, respectively at Effector:Target ratio of 10:1 ratio (E/T10), and the difference is statistically significant.

Data set [5] deals with CD55. The data set can be described thus: LC-MS/MS analysis of released, permethylated O-glycans of CD55. As to conditions: ST3Gal1 silenced vs sc transfected breast cancer cells. An excerpt: The bi- and tri-antennary structures were all detected as glycoforms of the expected tryptic peptide […], previously reported as the single N-linked glycosylation site. […] The sialylation of core 1 and core 2 O-glycan on CD55 regulates the activity of CD55.
Impairment of 2-3-sialylation of the O-glycans of the CD55 molecule increases non-sialylated core 1 and monosialylated core 2, at the expenses of disialylated core 2 structure. On the other hand, the relative amount of the monosialylated core 1 O-glycan of the CD55 molecule (m/z 895.462) was similar in ST3Gal1 silenced and sc transfected breast cancer cells, probably due to compensation of 2-6-sialylation.

Data set [6] deals with mCRPs (CD46, CD55, and CD59) and target antigens (HLA and SSEA4). The data set can be described thus: FACS expression of membrane complement regulatory proteins and target antigens. The data set is classed as cell-based. The settings on record: MDA-MB-231, four days after transfection.
From the text: as §1

In data set [7] the test system is ST3Gal1 mRNA. The data set can be described thus: ST3Gal1 mRNA expression by qPCR, normalized to GAPDH mRNA. The data set is classed as cell-based. As to conditions: MDA-MB-231 breast cancer cells; for expression of ST3Gal1 RNA compared to sc RNA, siRNA-A or pVoid transfected cells: FIG. 8A-8C. As to the method: MDA-MB-231 breast cancer cells (available from Bioresource Collection and Research Center, Taiwan) were transfected with scramble siRNA (sc) or ST3Gal1 (si) siRNA with an antisense strand (SEQ ID NO:2) and a sense strand (SEQ ID NO:3). The expression levels of the ST3Gal1 mRNA were analyzed by qPCR analysis and normalized to GAPDH mRNA levels.
MDA-MB-231 breast cancer cells were transfected with scramble siRNA (sc), a vector without shRNA (pVoid), shRNA1-3 (SEQ ID NO:11), shRNA 1-4 (SEQ ID NO:12), or the siRNA listed in Table 1 below:
The expression levels of the ST3Gal1 mRNA were analyzed by qPCR analysis and normalized to GAPDH mRNA levels.

Data set [8] has as its system neuroblastoma cells (SH-SY5Y). The data set can be described thus: AlamarBlue cell proliferation assay. The data set is classed as cell-based. As to conditions: fluorescence 590 nm, FIG. 7B. The protocol: (§2) Prostate cancer cells (PC3, Bioresource Collection and Research Center, Taiwan) and neuroblastoma cells (SH-SY5Y, obtained from Professor Yi-Cheng Chen, Mackay Medical College, Taiwan) were transfected with a scramble RNA (sc) or ST3Gal1 siRNA (si) according to Example 1. The cell proliferation was determined by AlamarBlue assay using Victor X3 plate reader to measure the fluorescence (590 nm) that was used to present the level of cell proliferation.

For data set [9], the system named is Prostate cancer cells (PC3). Kind of data set: AlamarBlue cell proliferation assay. The class given is cell-based. As to conditions: fluorescence 590 nm, FIG. 7A. As to the method: as §2
On the technique in general: Alamar Blue is a resazurin reagent that responds to reducing activity.

Data set [10] has as its system MCF7 breast cancer cells. The data set can be described thus: Cell growth monitored by xCELLigence System. The class given is cell-based. The settings on record: FIG. 9. The protocol:
An in vitro evaluation of the effect of ST3Gal1 siRNA (to knock down ST3Gal1 expression) and anti-cancer agent was performed using breast cancer cells.
MCF7 breast cancer cells were treated with one of the regimes in Table 2 and cell growth was monistored by xCELLigence System (ACEA Biosciences, Inc., USA)

Data set [11] has as its target CD55 from MDA-MB-231 breast cancer cells transfected with ST3Gal1 siRNA (UniProt P08174). The data set can be described thus: CD55 signal in PNA precipitate of lysate, ST3Gal1 siRNA cells against scramble siRNA cells.
Chain of UniProt P08174 (P08174 35-353 limits assumed): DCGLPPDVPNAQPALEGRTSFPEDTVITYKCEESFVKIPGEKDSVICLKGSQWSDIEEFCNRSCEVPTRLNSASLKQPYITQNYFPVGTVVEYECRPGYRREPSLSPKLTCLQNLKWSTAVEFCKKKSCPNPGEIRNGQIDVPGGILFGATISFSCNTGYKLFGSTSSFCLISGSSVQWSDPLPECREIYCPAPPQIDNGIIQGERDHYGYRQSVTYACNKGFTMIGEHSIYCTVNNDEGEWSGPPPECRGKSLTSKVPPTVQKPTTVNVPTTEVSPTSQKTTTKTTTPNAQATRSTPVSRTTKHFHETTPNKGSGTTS

Turning to “ST3Gal1 siRNA: ST3Gal1 siRNA with an antisense strand (SEQ ID NO:2) and a sense strand (SEQ ID NO:3) (sense CCGGUUCCUGCAAAGAUCAGAGUGA; antisense UCACUCUGAUCUUUGCAGGAACCGG; listed as RNA, chemistry not given here)”, the “C3 deposit, geometric mean fluorescence” value in [1] (10 μg/ml anti-HLA antibody) was 89.5±5.5×10^3; in data set [1] (25 μg/ml anti-HLA antibody), 164.8±0.8×10^3; in [1] (absence of anti-HLA antibody), 35.2±0.6×10^3. For the same molecule, in [2], the “expression levels of CD46 or CD59” value is “unaffected”. In addition, the “increase of CD55 PNA-binding signal after ST3Gal1 knock down” value in data set [3] (FIG. 1C) was found to be 2.6 folds. Also, the “total CD55 protein levels (sc = 1.0)” value in [3] (FIG. 1D) is 1.1. For the same molecule, the “mean percentage of lysis (ADCC)” value in [4] is listed as 41.5±2.4%. In addition, the “relative amount of monosialylated core 1 O-glycan of CD55 (m/z 895.462)” value in [5] is reported as “similar”. For the same molecule, in data set [5] (FIG. 6B), the “relative amount of disialylated core 2 structure at m/z 864.426 (2+) on CD55” value is listed as “significantly reduced”. Moreover, the “relative amount of monosialylated core 2 structure at m/z 683.839 (2+) on CD55” value in data set [5] (FIG. 6B) is recorded as “increased”. The “expression levels of mCRPs (CD46, CD55, CD59) and target antigens (HLA, SSEA4)” value in data set [6] is “no change”. For the same molecule, in [7] (normalized to GAPDH mRNA), the “expression of ST3Gal1 RNA, % of that of sc transfected breast cancer cells” value came out at 28.5±8.2%. In data set [8], the “proliferation of neuroblastoma cells compared to sc RNA” value is on record as “significantly reduced”. Besides, in [9], the “proliferation of prostate cancer cells compared to sc RNA” value is reported as “significantly reduced”. The Cancer cell viability in data set [10] was determined as 65%.

Consider “Peanut agglutinin (PNA) (from UniProt P02872 24-259)”, for which the fold increase of signal after ST3Gal1 knock down (against scramble siRNA cells) in data set [11] is 2.6 fold.

Consider “shRNA1-3: shRNA1-3 (SEQ ID NO:11) (CCGGGCTGGGAGATAATGTCAGCATCTCGAGATGCTGACATTATCTCCCAGCTTTTTG)”, for which the “expression of ST3Gal1 RNA compared to sc RNA, siRNA-A or pVoid transfected cells” value in [7] is on record as “reduced”.

In the case of “siRNA-2: siRNA, antisense UCAUGCUGACAUUAUCUCCCAGCUC (SEQ ID NO: 6), sense GAGCUGGGAGAUAAUGUCAGCAUGA (SEQ ID NO: 7) (listed as RNA, chemistry not given here)”, the “expression of ST3Gal1 RNA compared to sc RNA, siRNA-A or pVoid transfected cells” value in data set [7] is recorded as “reduced”.

In data set [10], `CC/C(=C(\c1ccccc1)c1ccc(OCCN(C)C)cc1)c1ccccc1` [tamoxifen] registered a Cancer cell viability of 76%.

Regarding “shRNA1-4: shRNA 1-4 (SEQ ID NO:12) (CCGGGCGGGAGAAGAAGCCCAATAACTCGAGTTATTGGGCTTCTTCTCCCGCTTTTTG)”, in data set [7], the “expression of ST3Gal1 RNA compared to sc RNA, siRNA-A or pVoid transfected cells” value is reported as “reduced”.

Molecule `COc1cc2c(Nc3ccc(Br)cc3F)ncnc2cc1OCC1CCN(C)CC1` [vandetanib] yielded a Cancer cell viability in data set [10] of 37.5%.

As to “siRNA-1: siRNA, antisense AUCUCAGGCCCAUAAGAAGACUCCC (SEQ ID NO: 4), sense GGGAGUCUUCUUAUGGGCCUGAGAU (SEQ ID NO: 5) (listed as RNA, chemistry not given here)”, the “expression of ST3Gal1 RNA compared to sc RNA, siRNA-A or pVoid transfected cells” value in data set [7] was “reduced”.

As to “siRNA-3: siRNA, antisense UUGAGAAGAUGACCGAGAGGAUGCC (SEQ ID NO: 8), sense GGCAUCCUCUCGGUCAUCUUCUCAA (SEQ ID NO: 9) (listed as RNA, chemistry not given here)”, the “expression of ST3Gal1 RNA compared to sc RNA, siRNA-A or pVoid transfected cells” value in [7] is “reduced”.

Source of the values: patent US20180037909A1, “MODIFIED CANCER CELL LINES AND USES THEREOF” (Chang Gung Memorial Hospital, Linkou, priority 2016, published 2018).
